Common to all, as to assay type: cell-based
The subject of test [1] is S. aureus UC-76 SA-1. The test is described as follows: in vitro antibacterial activity (MIC), S. aureus. To be noted: Staphylococcus aureus, UC76, strain UC-76 SA-1, lowest concentration preventing macroscopically visible growth. The text has this:
(§1) The in vitro antibacterial activity of the compounds of the present invention may be assessed by following procedures recommended in (1) National Committee for Clinical Laboratory Standards (January 2003), Methods for dilution antimicrobial tests for bacteria that grow aerobically, Approved Standard (6th ed), M7-A6, NCCLS, Wayne, Pa.; (2) National Committee for Clinical Laboratory Standards (March 2001), Methods for antimicrobial susceptibility testing of anaerobic bacteria, Approved Standard (5th ed), M11-A4, NCCLS, Wayne, Pa.; (3) National Committee for Clinical Laboratory Standards (Jan. 2003), MIC testing supplemental tables, M100-S13 (for use with M7-A6), NCCLS, Wayne, Pa.; and (4) Murray P R, Baron E J, Jorgensen J H, et al. Manual of Clinical Microbiology (8th ed) Washington, D.C.: American Society for Microbiology Press, 2003. The antibacterial activity can be presented in the form of MIC value. The MIC value is the lowest concentration of drug, which prevented macroscopically visible growth under the conditions of the test.

Test [2] concerns S. pneumoniae SV1 SP-3. The test is described as follows: in vitro antibacterial activity (MIC), S. pneumoniae. To be noted: Streptococcus pneumoniae, SV1SP3, strain SV1 SP-3, lowest concentration preventing macroscopically visible growth.
Description: as §1

Test [3] has as its system E. faecalis MGH-2 EF 1-1. The test is described as follows: in vitro antibacterial activity (MIC), E. faecalis. The settings on record: Enterococcus faecalis, MGH2EF11, strain MGH-2 EF 1-1, lowest concentration preventing macroscopically visible growth.
Description: as §1

≈ marks a conversion by molar mass, not a printed value.

Usually MIC stands for the smallest concentration in the dilution series that meets the test's criterion for growth inhibition. A lower MIC goes with a more susceptible organism. Take `CC(=O)NC[C@H]1CN(c2ccc3c(c2)COC(=O)N3C)C(=O)O1` [Example 1, (S)—N-((3-(1-methyl-2-oxo-2,4-dihydro-1H-benzo[d][1,3]oxazin-6-yl)-2-oxooxazolidin-5-yl)methyl)acetamide]: the MIC in test [1] was 4 µg/mL (≈ 12.5 µM); in test [2] it was 2 µg/mL (≈ 6.26 µM); in test [3] it was 4 µg/mL (≈ 12.5 µM).

Regarding `CCC(=O)NC[C@H]1CN(c2ccc3c(c2)COC(=O)N3C)C(=O)O1` [Example 2, (S)—N-((3-(1-methyl-2-oxo-2,4-dihydro-1H-benzo[d][1,3]oxazin-6-yl)-2-oxooxazolidin-5-yl)methyl)propionamide], the values for the MIC in test [1], in test [2] and in test [3] were 8 µg/mL (≈ 24 µM), 4 µg/mL (≈ 12 µM) and 8 µg/mL (≈ 24 µM), respectively.

`COC(=O)NC[C@H]1CN(c2ccc3c(c2)COC(=O)N3C)C(=O)O1` [Example 3, (S)-methyl (3-(1-methyl-2-oxo-2,4-dihydro-1H-benzo[d][1,3]oxazin-6-yl)-2-oxooxazolidin-5-yl)methylcarbamate]: the MIC in test [1], in test [2] and in test [3] was 4 µg/mL (≈ 11.9 µM) each time.

Take `CN1C(=O)OCc2cc(N3C[C@H](C(N)=O)OC3=O)ccc21` [Example 4, (R)-3-(1-methyl-2-oxo-2,4-dihydro-1H-benzo[d][1,3]oxazin-6-yl)-2-oxooxazolidine-5-carboxamide]: the MIC came to 4 µg/mL (≈ 13.7 µM) in test [1], 4 µg/mL (≈ 13.7 µM) in test [2] and 16 µg/mL (≈ 54.9 µM) in test [3].

As to `CNC(=O)[C@H]1CN(c2ccc3c(c2)COC(=O)N3C)C(=O)O1` [Example 5, (R)—N-methyl-3-(1-methyl-2-oxo-2,4-dihydro-1H-benzo[d][1,3]oxazin-6-yl)-2-oxooxazolidine-5-carboxamide], the figures for the MIC in test [1], in test [2] and in test [3] were 4 µg/mL (≈ 13.1 µM), 4 µg/mL (≈ 13.1 µM) and 16 µg/mL (≈ 52.4 µM), respectively.

With `CN1C(=O)OCc2cc(N3C[C@H](CNC(=O)OCF)OC3=O)ccc21` [Example 6, (S)-Fluoromethyl (3-(1-methyl-2-oxo-2,4-dihydro-1H-benzo[d][1,3]oxazin-6-yl)-2-oxooxazolidin-5-yl)methylcarbamate], the results for the MIC in test [1], in test [2] and in test [3] were 8 µg/mL (≈ 22.6 µM), 2 µg/mL (≈ 5.66 µM) and 8 µg/mL (≈ 22.6 µM), respectively.

Consider `CN1C(=O)OCc2cc(N3C[C@H](Cn4ccnn4)OC3=O)ccc21` [Example 7, (R)-6-(5-((1H-1,2,3-triazol-1-yl)methyl)-2-oxooxazolidin-3-yl)-1-methyl-1H-benzo[d][1,3]oxazin-2(4H)-one], for which the MIC in test [1] is 16 µg/mL (≈ 48.6 µM); in test [2], 16 µg/mL (≈ 48.6 µM); in test [3], 32 µg/mL (≈ 97.2 µM).

On to `CN1C(=O)OCc2cc(N3C[C@H](C(N)=O)OC3=O)cc(F)c21` [Example 8, (R)-3-(8-fluoro-1-methyl-2-oxo-2,4-dihydro-1H-benzo[d][1,3]oxazin-6-yl)-2-oxooxazolidine-5-carboxamide], for which the MIC in test [1] was found to be 8 µg/mL (≈ 25.9 µM); in test [2], 16 µg/mL (≈ 51.7 µM); in test [3], 8 µg/mL (≈ 25.9 µM).

`CNC(=O)[C@H]1CN(c2cc(F)c3c(c2)COC(=O)N3C)C(=O)O1` [Example 9, (R)-3-(8-fluoro-1-methyl-2-oxo-2,4-dihydro-1H-benzo[d][1,3]oxazin-6-yl)-N-methyl-2-oxooxazolidine-5-carboxamide]: the MIC in test [1], in test [2] and in test [3] was 8 µg/mL (≈ 24.7 µM) each time.

For the molecule `CC(=O)NC[C@H]1CN(c2cc(F)c3c(c2)COC(=O)N3C)C(=O)O1` [Example 10, (S)—N-((3-(8-fluoro-1-methyl-2-oxo-2,4-dihydro-1H-benzo[d][1,3]oxazin-6-yl)-2-oxooxazolidin-5-yl)methyl)acetamide], the figures for the minimal inhibitory concentration (MIC) in test [1], in test [2] and in test [3] were 2 µg/mL (≈ 5.93 µM), 2 µg/mL (≈ 5.93 µM) and 4 µg/mL (≈ 11.9 µM), respectively.

For `CCC(=O)NC[C@H]1CN(c2cc(F)c3c(c2)COC(=O)N3C)C(=O)O1` [Example 11, (S)—N-((3-(8-fluoro-1-methyl-2-oxo-2,4-dihydro-1H-benzo[d][1,3]oxazin-6-yl)-2-oxooxazolidin-5-yl)methyl)propionamide], the MIC in test [1], in test [2] and in test [3] was 4 µg/mL (≈ 11.4 µM) throughout.

For the molecule `COC(=O)NC[C@H]1CN(c2cc(F)c3c(c2)COC(=O)N3C)C(=O)O1` [Example 12, (S)-methyl (3-(8-fluoro-1-methyl-2-oxo-2,4-dihydro-1H-benzo[d][1,3]oxazin-6-yl)-2-oxooxazolidin-5-yl)methylcarbamate], the MIC in test [1] is 4 µg/mL (≈ 11.3 µM); in test [2], 4 µg/mL (≈ 11.3 µM); in test [3], 8 µg/mL (≈ 22.6 µM).

On to `CC(=O)NC[C@H]1CN(c2cc(F)c3c(c2)CCOC(=O)N3C)C(=O)O1` [Example 15, N-{[(SS)-3-(9-fluoro-1-methyl-2-oxo-1,2,4,5-tetrahydro-3,1-benzoxazepin-7-yl)-2-oxo-1,3-oxazolidin-5-yl]methyl}acetamide], for which the MIC in test [1] amounted to 8 µg/mL (≈ 22.8 µM); in test [2], 4 µg/mL (≈ 11.4 µM); in test [3], 8 µg/mL (≈ 22.8 µM).

Turning to `CCC(=O)NC[C@H]1CN(c2cc(F)c3c(c2)CCOC(=O)N3C)C(=O)O1` [Example 16, N-{[(5S)-3-(9-fluoro-1-methyl-2-oxo-1,2,4,5-tetrahydro-3,1-benzoxazepin-7-yl)-2-oxo-1,3-oxazolidin-5-yl]methyl}propanamide], the MIC in test [1] was determined as 16 µg/mL (≈ 43.8 µM); in test [2] it was 8 µg/mL (≈ 21.9 µM); in test [3], 16 µg/mL (≈ 43.8 µM).

For the molecule `COC(=O)NC[C@H]1CN(c2cc(F)c3c(c2)CCOC(=O)N3C)C(=O)O1` [Example 17, methyl [(5S)-3-(9-fluoro-1-methyl-2-oxo-1,2,4,5-tetrahydro-3,1-benzoxazepin-7-yl)-2-oxo-1,3-oxazolidin-5-yl]methylcarbamate], the results for the minimal inhibitory concentration (MIC) in test [1], in test [2] and in test [3] were 16 µg/mL (≈ 43.6 µM), 8 µg/mL (≈ 21.8 µM) and 16 µg/mL (≈ 43.6 µM), respectively.

Take `CN1C(=O)OCCc2cc(N3C[C@H](C(N)=O)OC3=O)ccc21` [Example 18, (5R)-3-(1-methyl-2-oxo-1,2,4,5-tetrahydro-3,1-benzoxazepin-7-yl)-2-oxo-1,3-oxazolidine-5-carboxamide]: the MIC in test [1] came to 16 µg/mL (≈ 52.4 µM); in test [2] it was 32 µg/mL (≈ 105 µM); in test [3] it was 32 µg/mL (≈ 105 µM).

`CNC(=O)[C@H]1CN(c2ccc3c(c2)CCOC(=O)N3C)C(=O)O1` [Example 19, (5R)—N-methyl-3-(1-methyl-2-oxo-1,2,4,5-tetrahydro-3,1-benzoxazepin-7-yl)-2-oxo-1,3-oxazolidine-5-carboxamide]: the results for the MIC in test [1], in test [2] and in test [3] were 16 µg/mL (≈ 50.1 µM), 32 µg/mL (≈ 100 µM) and 32 µg/mL (≈ 100 µM), respectively.

For the molecule `CC(=O)NC[C@H]1CN(c2ccc3c(c2)CCOC(=O)N3C)C(=O)O1` [Example 20, N-{[(5S)-3-(1-methyl-2-oxo-1,2,4,5-tetrahydro-3,1-benzoxazepin-7-yl)-2-oxo-1,3-oxazolidin-5-yl]methyl}acetamide], the MIC in test [1] amounted to 8 µg/mL (≈ 24 µM); in test [2], 4 µg/mL (≈ 12 µM); in test [3], 8 µg/mL (≈ 24 µM).

For `CCC(=O)NC[C@H]1CN(c2ccc3c(c2)CCOC(=O)N3C)C(=O)O1` [Example 21, N-{[(5S)-3-(1-methyl-2-oxo-1,2,4,5-tetrahydro-3,1-benzoxazepin-7-yl)-2-oxo-1,3-oxazolidin-5-yl]methyl}propanamide], the MIC in test [1], in test [2] and in test [3] was 8 µg/mL (≈ 23 µM) each time.

Turning to `COC(=O)NC[C@H]1CN(c2ccc3c(c2)CCOC(=O)N3C)C(=O)O1` [Example 22, methyl [(5S)-3-(1-methyl-2-oxo-1,2,4,5-tetrahydro-3,1-benzoxazepin-7-yl)-2-oxo-1,3-oxazolidin-5-yl]methylcarbamate], the MIC in test [1], in test [2] and in test [3] was 8 µg/mL (≈ 22.9 µM) throughout.

The values are drawn from US20090318431A1, “BENZOXAZINONE AND BENZOXAZEPINONE OXAZOLIDINONES AS ANTIBACTERIAL AGENTS” (Pfizer Inc., priority 2006, published 2009).
